Test results taken from patent publication US20250212891A1, “MIXTURES AND COMPOSITIONS COMPRISING PAENIBACILLUS STRAINS OR FUSARICIDINS AND CHEMICAL PESTICIDES” (BASF SE, priority 2016, published 2025).
Read-outs that look alike come from different tables or passages of the source. Positions of bridges follow the written chain, without caps; N, C: chain ends. Non-standard residues stand in square brackets, D forms with d. Residues, ends and D or L forms follow the SMILES beside them. ξ: configuration not given here. *: point of attachment. Pentadecanoyl(3ξ-OH,15-Gua) = N=C(N)NCCCCCCCCCCCCC(O)CC(=O)*; d(aThr) = C[C@@H](O)[C@@H](N)C(=O)O

How the values were obtained:
[1] = tested on: Alternaria solani; experiment: Microtiterplate test against early blight (Alteso); format: cell-based
[2] = tested on: Phakopsora pachyrhizi (PHAKPA); experiment: Glasshouse test, soybean rust on soybean, protective application; format: in vivo; conditions: in planta, 360 ppm
[3] = tested on: Septoria tritici; experiment: Microtiterplate test against leaf blotch on wheat (Septtr); format: cell-based
[4] = tested on: Botrytis cinerea (BOTRCI); experiment: Glasshouse test, grey mold on pepper, protective application; format: in vivo; conditions: in planta
[5] = tested on: Alternaria solani (ALTESO); experiment: Fungal growth assay in 96 well plates; format: cell-based
[6] = tested on: Pyricularia oryzae; format: cell-based; conditions: Pyrior, single active, 7 days after inoculation
[7] = tested on: Botrytis cinerea (BOTRCI); experiment: Fungal growth assay in 96 well plates; format: cell-based; conditions: evaluation 7 days after inoculation, OD 600 nm, about 18° C., read-out: Fungal growth inhibition (IC50 [μM]) BOTRCI (7 d)
[8] = tested on: Leptosphaeria nodorum; experiment: Microtiterplate test against wheat leaf spots (Leptno); format: cell-based
[9] = tested on: Alternaria solani (ALTESO); experiment: Glasshouse test, early blight on tomato, protective application; format: in vivo; conditions: in planta, 36 ppm
[10] = tested on: Botrytis cinerea; experiment: Microtiterplate test against grey mold (Botrci); format: cell-based
[11] = tested on: clinically relevant fungi and gram-positive bacteria such a Staphylococcus aureus; conditions: ChemMedChem 7, 871-882, 2012; cited from earlier work
[12] = tested on: Phytophthora infestans (PHYTIN); format: in vivo; conditions: protective application, 7.2 ppm
[13] = tested on: Fusarium graminearum (GIBBZE); format: in vivo; conditions: protective application, 360 ppm
[14] = Alternaria solani, 72 h, evaluation 3 days after inoculation, OD 600 nm, about 18° C., read-out: Fungal growth inhibition (IC50 [μM]) ALTESO (3 d)
[15] = Alternaria solani, 168 h, evaluation 7 days after inoculation, OD 600 nm, about 18° C., read-out: Fungal growth inhibition (IC50 [μM]) ALTESO (7 d)
[16] = Alternaria solani, summary over ALTESO and BOTRCI of Tab. 18, read-out: IC50 values (antifungal efficacy, Tab. 18)
[17] = Botrytis cinerea, 168 h, 1 ppm, read-out: Observed efficacy
[18] = evaluation 3 days after inoculation, OD 600 nm, about 18° C., read-out: Fungal growth inhibition (IC50 [μM]) ALTESO (3 d)
[19] = evaluation 7 days after inoculation, OD 600 nm, about 18° C., read-out: Fungal growth inhibition (IC50 [μM]) ALTESO (7 d)
[20] = Botrytis cinerea, 168 h, read-out: Observed efficacy

CCC(C)C1NC(=O)C(NC(=O)CC(O)CCCCCCCCCCCCNC(=N)N)C(C)OC(=O)C(C)NC(=O)C(CC(N)=O)NC(=O)C(C(C)O)NC(=O)C(Cc2ccc(O)cc2)NC1=O (centres unmarked) [Compound 1A, fusaricidin 1A] ({Pentadecanoyl(3ξ-OH,15-Gua)}-TIYTNA; ester 1-C; configuration not given here)
Observed efficacy ([1]; 0.016 ppm): 1% | Observed efficacy ([1]; 0.063 ppm): 7% | Observed efficacy ([1]; 0.25 ppm): 10% | Observed efficacy ([1]; 1 ppm): 58% | % efficacy (% fungal attack) PHAKPA [2]: 95% | Observed efficacy ([3]; 0.016 ppm): 9% | Observed efficacy ([3]; 0.063 ppm): 8% | Observed efficacy ([3]; 0.25 ppm): 12% | % efficacy (% fungal attack) BOTRCI ([4]; 36 ppm): 97% | % efficacy (% fungal attack) BOTRCI ([4]; 360 ppm): 99% | IC50 [5, 14]: 0.6 µM | IC50 [5, 15]: 0.5 µM | IC50 [5, 16]: 0.4 to 0.6 µM | Observed efficacy ([6]; 0.004 ppm): 3% | Observed efficacy ([6]; 1 ppm): 7% | IC50 ([7]; Botrytis cinerea, 168 h): 0.3 µM | Observed efficacy ([8]; 1 ppm): 19% | % efficacy (% fungal attack) ALTESO [9]: 74% | inhibition of growth at 1 ppm [10, 17]: 40%

CC(C)[C@@H]1NC(=O)[C@@H](C(C)C)NC(=O)[C@@H](NC(=O)CC(O)CCCCCCCCCCCCN=C(N)N)[C@@H](C)OC(=O)[C@@H](C)NC(=O)[C@@H](CC(N)=O)NC(=O)[C@@H]([C@@H](C)O)NC1=O (some centres unmarked) [Fusaricidin A, fusaricidin A] ({Pentadecanoyl(3ξ-OH,15-Gua)}-T[dV]V[d(aThr)][dN][dA]; ester 1-C)
MIC value range [11]: 0.78 to 3.12 µg/mL | % efficacy (% fungal attack), late blight on tomato caused by Phytophthora infestans [12]: 15% | IC50 [5, 18]: 1.3 µM | IC50 [5, 19]: 0.7 µM | IC50 [7]: 0.5 µM | % efficacy (% fungal attack), head blight on wheat caused by Fusarium graminearum [13]: 31%

Cc1cc(C)nc(Nc2ccccc2)n1 [Pyrimethanil]
Observed efficacy ([8]; 0.063 ppm): 1% | inhibition of growth at 0.063 ppm ([10]; Botrytis cinerea, 168 h, 0.063 ppm, read-out: Observed efficacy): 11% | inhibition of growth at 4 ppm ([10]; Botrytis cinerea, 168 h, 4 ppm, read-out: Observed efficacy): 45%

COC(=O)N(OC)c1ccccc1COc1ccn(-c2ccc(Cl)cc2)n1 [Pyraclostrobin, pyraclostrobin, reference compound]
Observed efficacy ([3]; 0.004 ppm): 12% | Observed efficacy ([6]; 0.001 ppm): 28% | Observed efficacy ([6]; 0.004 ppm): 44% | Observed efficacy ([8]; 0.001 ppm): 3% | Observed efficacy ([8]; 0.016 ppm): 11% | inhibition of growth at 0.001 ppm ([10]; Botrytis cinerea, 168 h, 0.001 ppm, read-out: Observed efficacy): 4% | inhibition of growth at 0.016 ppm ([10]; Botrytis cinerea, 168 h, 0.016 ppm, read-out: Observed efficacy): 5% | inhibition of growth at 0.25 ppm [10, 20]: 10%

COCC(=O)N(c1c(C)cccc1C)C(C)C(=O)OC (centres unmarked) [Metalaxyl]
Observed efficacy ([1]; 16 ppm): 10% | Observed efficacy ([8]; 0.063 ppm): 0% | inhibition of growth at 0.25 ppm [10, 20]: 0%

CCC(C)C1NC(=O)C(NC(=O)CC(O)CCCCCCCCCCCCNC(=N)N)C(C)OC(=O)C(C)NC(=O)C(CCC(N)=O)NC(=O)C(C(C)O)NC(=O)C(Cc2ccc(O)cc2)NC1=O (centres unmarked) [Compound 1B, fusaricidin 1B] ({Pentadecanoyl(3ξ-OH,15-Gua)}-TIYTQA; ester 1-C; configuration not given here)
Observed efficacy ([1]; 0.063 ppm): 13% | Observed efficacy ([1]; 0.25 ppm): 14% | Observed efficacy ([1]; 1 ppm): 59% | % efficacy (% fungal attack) PHAKPA [2]: 97% | Observed efficacy ([3]; 0.016 ppm): 20% | Observed efficacy ([3]; 0.063 ppm): 22% | Observed efficacy ([3]; 0.25 ppm): 20% | % efficacy (% fungal attack) BOTRCI ([4]; 36 ppm): 97% | % efficacy (% fungal attack) BOTRCI ([4]; 360 ppm): 100% | IC50 [5, 14]: 0.6 µM | IC50 [5, 15]: 0.4 µM | IC50 [5, 16]: 0.4 to 0.6 µM | Observed efficacy ([6]; 0.016 ppm): 2% | Observed efficacy ([6]; 0.063 ppm): 3% | Observed efficacy ([6]; 0.25 ppm): 3% | Observed efficacy ([6]; 1 ppm): 12% | IC50 ([7]; Botrytis cinerea, 168 h): 0.4 µM | Observed efficacy ([8]; 0.25 ppm): 0% | Observed efficacy ([8]; 1 ppm): 14% | inhibition of growth at 0.25 ppm [10, 20]: 4% | inhibition of growth at 1 ppm [10, 17]: 50%

CNC(=O)/C(=N/OC)c1ccccc1COc1cc(C)ccc1C [Dimoxystrobin]
Observed efficacy ([1]; 0.063 ppm): 36% | Observed efficacy ([3]; 0.063 ppm): 73% | Observed efficacy ([10]; 0.063 ppm): 0% | Observed efficacy ([10]; 1 ppm): 23%

OC(Cc1ccccc1Cl)(Cn1nc[nH]c1=S)C1(Cl)CC1 (centres unmarked) [Prothioconazol, prothioconazole, reference compound]
Observed efficacy ([3]; 0.063 ppm): 10% | Observed efficacy ([6]; 0.25 ppm): 25%

CO/C=C(/C(=O)OC)c1ccccc1Oc1cc(Oc2ccccc2C#N)ncn1 [Azoxystrobin]
Observed efficacy ([1]; 0.016 ppm): 43% | Observed efficacy ([3]; 0.063 ppm): 60% | Observed efficacy ([8]; 0.25 ppm): 59%

CC(C)[C@@H]1NC(=O)[C@@H](C(C)C)NC(=O)[C@@H](NC(=O)CC(O)CCCCCCCCCCCCN=C(N)N)C(C)OC(=O)[C@@H](C)NC(=O)[C@@H](CCC(N)=O)NC(=O)[C@@H]([C@H](C)O)NC1=O (stereo in doubt) [Fusaricidin B, fusaricidin B]
% efficacy (% fungal attack), late blight on tomato caused by Phytophthora infestans [12]: 4% | IC50 [5, 18]: 1.1 µM | IC50 [5, 19]: 0.6 µM | IC50 [7]: 0.6 µM | % efficacy (% fungal attack), head blight on wheat caused by Fusarium graminearum [13]: 0%
